One molecule from ChEMBL document CHEMBL5338805, “Discovery of the First Subnanomolar PPARα/δ Dual Agonist for the Treatment of Cholestatic Liver Diseases” (J Med Chem, 2023) can be followed below.

Activity calls are given as the source filed them. The calls are words filed in the database; no cut-off is given here.

The target of data set [1] is Nuclear receptor ROR-alpha (Homo sapiens) (UniProt P35398). Nature of the data set: Agonist activity at RORalpha (unknown origin) transfected in african green monkey COS7 cells assessed transactivation incubated at 1 uM for 16 hrs by luciferase assay. In kind it is cell-based.
Data set [2] in a line: Anti-cholestatic activity in ANIT-induced C57BL/6Nifdc mouse model assessed as decrease in serum TBA at 0.03 to 0.1 mg/kg, po upto 42 hrs measured after 48 hrs. The note with it: in vivo, 90 h, dose 0.03-0.1 mg/kg. The class given is ADME, organism-based.
Data set [3] has as its target Vitamin D3 receptor (Homo sapiens) (UniProt P11473). The data set is described as follows: Agonist activity at VDR (unknown origin) transfected in african green monkey COS7 cells assessed transactivation incubated at 1 uM for 16 hrs by luciferase assay. The class given is cell-based.
The nature of data set [4]: Anti-cholestatic activity in ANIT-induced C57BL/6Nifdc mouse model assessed as decrease in liver alkaline phosphatase at 0.03 to 0.1 mg/kg, po upto 42 hrs measured after 48 hrs. In kind it is ADME, organism-based. The note with it: in vivo, 90 h, dose 0.03-0.1 mg/kg.
A short description of data set [5]: Anti-cholestatic activity in ANIT-induced C57BL/6Nifdc mouse model assessed as decrease in liver HCA at 0.03 to 0.1 mg/kg, po upto 42 hrs measured after 48 hrs. In kind it is ADME, organism-based. To be noted: in vivo, 90 h, dose 0.03-0.1 mg/kg.
The target in data set [6] is Peroxisome proliferator-activated receptor delta (Homo sapiens) (UniProt Q03181). The note with it: filed as agonist, dose 0.625-10 µM.
Description: Binding affinity to PPARdelta LBD (unknown origin) assessed as thermal stability by measuring change in melting temperature by thermal shift assay
The target in data set [7] is Nuclear receptor ROR-beta (Homo sapiens) (UniProt Q92753). Nature of the data set: Agonist activity at RORbeta (unknown origin) transfected in african green monkey COS7 cells assessed transactivation incubated at 1 uM for 16 hrs by luciferase assay. The class given is cell-based.
Data set [8] can be described thus: Mutagenicity in Salmonella typhimurium TA100 measured at 0.21 to 16.67 mg/ml for 72 hrs by mini-Ames test. The class given is toxicity. To be noted: salmonella enterica subsp. enterica serovar typhimurium, dose 0.21-16.67 mg/ml.
Data set [9] deals with Retinoic acid receptor RXR-beta (Homo sapiens) (UniProt P28702). Nature of the data set: Agonist activity at RXRbeta (unknown origin) transfected in african green monkey COS7 cells assessed transactivation incubated at 1 uM for 16 hrs by luciferase assay. The class given is cell-based.
Data set [10] can be described thus: Acute toxicity in mouse assessed as mortality administered orally for 14 days. To be noted: in vivo, po, 336 h, time 14 day.
Data set [11] can be described thus: Anti-cholestatic activity in ANIT-induced C57BL/6Nifdc mouse model assessed as decrease in liver TBA at 0.03 to 0.1 mg/kg, po upto 42 hrs measured after 48 hrs. The note with it: in vivo, 90 h, dose 0.03-0.1 mg/kg. In kind it is ADME, organism-based.
For data set [12], the target named is Nuclear receptor subfamily 1 group I member 2 (Homo sapiens, UniProt O75469). The data set is described as follows: Agonist activity at PXR (unknown origin) transfected in african green monkey COS7 cells assessed transactivation incubated at 1 uM for 16 hrs by luciferase assay. To be noted: cos7, 16 h. In kind it is cell-based.
Data set [13] in a line: Anti-cholestatic activity in ANIT-induced C57BL/6Nifdc mouse model assessed as decrease in liver CA at 0.03 to 0.1 mg/kg, po upto 42 hrs measured after 48 hrs. In kind it is ADME, organism-based. To be noted: in vivo, 90 h, dose 0.03-0.1 mg/kg.
Data set [14] in a line: Acute toxicity in mouse assessed as moribundity administered at 2000 mg/kg, po for 14 days. The class given is organism-based. The note with it: in vivo, 336 h, time 14 day.
Data set [15] in a line: Anti-cholestatic activity in ANIT-induced C57BL/6Nifdc mouse model assessed as downregulation of proinflammatory Il1b gene at 0.03 to 0.1 mg/kg, po upto 42 hrs measured after 48 hrs. In kind it is ADME, organism-based. The note with it: in vivo, 90 h, dose 0.03-0.1 mg/kg.
Data set [16] can be described thus: Anti-cholestatic activity in ANIT-induced C57BL/6Nifdc mouse model assessed as decrease in liver 12-OCDCA at 0.03 to 0.1 mg/kg, po upto 42 hrs measured after 48 hrs. In kind it is ADME, organism-based. To be noted: in vivo, 90 h, dose 0.03-0.1 mg/kg.
A short description of data set [17]: Down-streaming of Cyp7a1 gene expression in C57BL/6JNifdc mouse liver assessed as hepatic resorption of bile acid administered at 0.03 mg/kg, po for 3 days measured after 6 hrs of last administration by real-time PCR analysis. In kind it is ADME, organism-based. The note with it: in vivo, 78 h.
The nature of data set [18]: Anti-cholestatic activity in ANIT-induced C57BL/6Nifdc mouse model assessed as decrease in liver T-MCA at 0.03 to 0.1 mg/kg, po upto 42 hrs measured after 48 hrs. The class given is ADME, organism-based. The note with it: in vivo, 90 h, dose 0.03-0.1 mg/kg.
Data set [19] is described as follows: Anti-cholestatic activity in ANIT-induced C57BL/6Nifdc mouse model assessed as decrease in serum total bilirubin level at 0.03 to 0.1 mg/kg, po upto 42 hrs measured after 48 hrs. In kind it is ADME, organism-based. The note with it: in vivo, 90 h, dose 0.03-0.1 mg/kg.

Nuclear receptor subfamily 1 group I member 2, sequence (O75469 whole entry): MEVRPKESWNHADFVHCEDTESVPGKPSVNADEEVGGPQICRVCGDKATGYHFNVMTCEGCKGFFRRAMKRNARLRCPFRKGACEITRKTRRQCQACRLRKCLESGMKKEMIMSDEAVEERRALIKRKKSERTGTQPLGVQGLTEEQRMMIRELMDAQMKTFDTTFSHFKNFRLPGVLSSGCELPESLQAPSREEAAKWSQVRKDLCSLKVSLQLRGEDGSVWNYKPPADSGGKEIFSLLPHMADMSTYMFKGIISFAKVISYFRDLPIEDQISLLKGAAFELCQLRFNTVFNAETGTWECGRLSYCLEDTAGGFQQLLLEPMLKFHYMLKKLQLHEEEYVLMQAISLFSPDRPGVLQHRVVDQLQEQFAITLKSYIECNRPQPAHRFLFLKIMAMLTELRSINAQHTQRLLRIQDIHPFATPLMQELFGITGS
Peroxisome proliferator-activated receptor delta (Homo sapiens), sequence (Q03181 whole entry): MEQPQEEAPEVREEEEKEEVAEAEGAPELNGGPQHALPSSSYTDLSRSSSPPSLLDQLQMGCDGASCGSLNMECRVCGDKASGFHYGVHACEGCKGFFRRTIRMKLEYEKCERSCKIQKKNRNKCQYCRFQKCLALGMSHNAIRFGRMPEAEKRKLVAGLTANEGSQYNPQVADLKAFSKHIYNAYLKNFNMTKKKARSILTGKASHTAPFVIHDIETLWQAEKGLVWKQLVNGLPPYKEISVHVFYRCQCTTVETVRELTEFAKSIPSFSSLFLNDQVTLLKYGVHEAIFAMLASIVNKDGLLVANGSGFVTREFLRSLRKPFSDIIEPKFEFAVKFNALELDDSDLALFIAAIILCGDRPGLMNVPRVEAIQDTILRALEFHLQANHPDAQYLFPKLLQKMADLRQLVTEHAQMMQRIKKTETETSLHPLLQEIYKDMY
Nuclear receptor ROR-beta (Homo sapiens), sequence (Q92753 whole entry): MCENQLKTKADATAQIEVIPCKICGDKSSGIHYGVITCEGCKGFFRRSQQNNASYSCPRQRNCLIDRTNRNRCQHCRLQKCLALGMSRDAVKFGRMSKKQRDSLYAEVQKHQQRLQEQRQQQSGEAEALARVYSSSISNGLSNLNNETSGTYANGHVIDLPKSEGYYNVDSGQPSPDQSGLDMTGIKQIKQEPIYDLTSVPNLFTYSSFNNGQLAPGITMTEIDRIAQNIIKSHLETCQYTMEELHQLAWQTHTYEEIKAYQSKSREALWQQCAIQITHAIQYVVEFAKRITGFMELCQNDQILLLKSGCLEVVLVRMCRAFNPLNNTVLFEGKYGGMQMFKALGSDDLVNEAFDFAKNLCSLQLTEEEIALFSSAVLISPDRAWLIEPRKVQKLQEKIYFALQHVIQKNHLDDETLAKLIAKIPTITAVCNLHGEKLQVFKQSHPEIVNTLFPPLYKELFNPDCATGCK
Retinoic acid receptor RXR-beta (Homo sapiens), sequence (P28702 whole entry): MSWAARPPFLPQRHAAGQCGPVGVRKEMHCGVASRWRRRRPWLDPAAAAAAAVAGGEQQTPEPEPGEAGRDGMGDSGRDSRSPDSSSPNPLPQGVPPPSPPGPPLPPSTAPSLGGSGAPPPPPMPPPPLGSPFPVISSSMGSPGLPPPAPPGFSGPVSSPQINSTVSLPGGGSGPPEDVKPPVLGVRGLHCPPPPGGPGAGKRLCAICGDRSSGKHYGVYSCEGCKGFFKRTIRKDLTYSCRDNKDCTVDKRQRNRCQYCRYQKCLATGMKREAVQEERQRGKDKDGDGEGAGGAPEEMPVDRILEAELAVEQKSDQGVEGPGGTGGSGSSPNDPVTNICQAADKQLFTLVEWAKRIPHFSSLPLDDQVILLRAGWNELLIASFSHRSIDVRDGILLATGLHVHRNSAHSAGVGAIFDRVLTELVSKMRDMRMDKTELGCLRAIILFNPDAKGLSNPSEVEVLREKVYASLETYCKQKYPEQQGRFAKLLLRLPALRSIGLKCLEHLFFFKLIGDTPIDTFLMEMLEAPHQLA
Nuclear receptor ROR-alpha (Homo sapiens), sequence (P35398 whole entry): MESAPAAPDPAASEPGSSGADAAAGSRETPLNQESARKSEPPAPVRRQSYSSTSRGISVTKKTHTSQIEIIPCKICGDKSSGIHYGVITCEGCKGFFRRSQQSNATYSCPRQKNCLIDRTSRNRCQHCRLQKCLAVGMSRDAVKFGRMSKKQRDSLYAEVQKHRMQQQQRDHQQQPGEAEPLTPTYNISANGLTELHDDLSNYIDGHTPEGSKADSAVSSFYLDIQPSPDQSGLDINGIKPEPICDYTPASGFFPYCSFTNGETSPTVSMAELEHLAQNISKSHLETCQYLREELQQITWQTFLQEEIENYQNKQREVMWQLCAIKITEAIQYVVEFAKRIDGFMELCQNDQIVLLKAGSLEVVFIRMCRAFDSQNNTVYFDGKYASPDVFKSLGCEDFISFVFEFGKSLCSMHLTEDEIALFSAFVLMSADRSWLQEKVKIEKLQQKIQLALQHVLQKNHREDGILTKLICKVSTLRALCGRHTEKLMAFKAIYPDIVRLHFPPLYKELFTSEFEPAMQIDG
Vitamin D3 receptor (Homo sapiens), sequence (P11473 whole entry): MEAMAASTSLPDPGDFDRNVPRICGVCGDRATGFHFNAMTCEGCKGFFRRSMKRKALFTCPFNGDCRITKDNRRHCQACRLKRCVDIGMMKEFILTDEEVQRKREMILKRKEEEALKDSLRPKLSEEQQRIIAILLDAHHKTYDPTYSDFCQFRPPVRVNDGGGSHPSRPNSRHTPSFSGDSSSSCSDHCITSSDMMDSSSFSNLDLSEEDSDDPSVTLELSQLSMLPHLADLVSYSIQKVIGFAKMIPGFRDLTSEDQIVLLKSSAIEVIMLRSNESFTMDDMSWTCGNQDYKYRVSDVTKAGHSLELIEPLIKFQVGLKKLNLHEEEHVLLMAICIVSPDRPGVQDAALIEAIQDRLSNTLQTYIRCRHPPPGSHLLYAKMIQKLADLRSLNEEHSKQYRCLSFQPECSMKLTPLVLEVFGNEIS

On to `Cc1cc(CN2C(=O)CN(c3ccc(C(F)(F)F)cc3)C2=O)cc(C)c1OC(C)(C)C(=O)O`, for which the result in data set [1], in data set [3], in [7] and in [9] was inactive. In addition, the Activity result was “Active” in data set [2]; “Active” in data set [4]; “Active” in [5]; “Non-Toxic” in [8]; “Non-Toxic” in data set [10]; “Active” in data set [11]. The Activity result in data set [12] is “Not Active”; in [13], “Active”; in [14] it was “Non-Toxic”; in [15], “Active”; in data set [16], “Active”; in [17], “Active”. Moreover, the outcome in [18] and in data set [19] was Active. Also, the deltaTm result in data set [6] is “Dose-Dependent Effect”.
